Source: article PMC8881610 (Nature Communications, 2022)
Read-outs that look alike come from different tables or passages of the source.

Columns and labels:
Assay type in all cases: cell-based
GLP-1R = GLP-1R (Homo sapiens, UniProt P43220); assay: β-arrestin 2 recruitment (BRET); set-up: expressed in transfected cells; host or cells: HEK293T; conditions: HEK-293T, GLP-1R WT, HEK293T
Protocol: HEK293T cells (3.2 × 10^6 cells/10 cm plate) were grown for 24 h before transiently transfection with 15 μg plasmid containing GIPR, GLP-1R or GCGR tagged with Rluc8 and β-arrestin 2 with a Venus-tag at the N terminus at a ratio of 1:9 by Lipofectamine 3000 transfection reagent. After cells were grown for 24 h, transiently transfected cells were then seeded onto poly-D-lysine coated 96-well culture plates (50,000 cells/well) in DMEM with 10% FBS. Cells were grown for 20 h before incubation in assay buffer (HBSS supplemented with 10 mM HEPES, 0.1% BSA or 0.1% casein, pH 7.4) for 30 min at 37 °C. Coelentrazine-h (Yeasen Biotech) was added to a final concentration of 5 μM for 5 min before bioluminescence resonance energy transfer (BRET) readings were made using an EnVision plate reader (PerkinElmer). BRET baseline measurements were collected for 15 cycles prior to ligand addition. After which, BRET was measured for 55 cycles.

GCGR = GCGR (Homo sapiens, UniProt P47871); assay: cAMP accumulation assay, GCGR WT, mutant or modified constructs; set-up: V5 (C); 6×His (C); expressed in transfected cells; host or cells: HEK293T; conditions: HEK293T; for Emax: HEK-293T
Protocol: Human embryonic kidney 293 cells containing SV40 large T-antigen (HEK293T) were cultured in DMEM (Gibco) supplemented with 10% (v/v) fetal bovine serum (FBS, Gibco), 1 mM sodium pyruvate (Gibco) and 100 units/mL penicillin and 100 μg/mL streptomycin at 37 °C in 5% CO2. Chinese hamster ovary (CHO-K1) cells were cultured in F-12 (Gibco) containing 10% FBS, 100 units/mL penicillin and 100 μg/mL streptomycin at 37 °C in 5% CO2. For cAMP and receptor expression assays, HEK293T cells were seeded into 6-well cell culture plates at a density of 7 × 10^5 cells per well. After overnight incubation, cells were transfected with GIPR, GLP-1R or GCGR construct using Lipofectamine 2000 or Lipofectamine 3000 transfection reagent (Invitrogen). For whole-cell binding assay, CHO-K1 cells were seeded into 96-well fibronectin-treated cell culture plates at a density of 3 × 10^4 cells per well. After overnight incubation, cells were transfected with GIPR, GLP-1R or GCGR construct using Lipofectamine 2000 transfection reagent (Invitrogen). Following 24 h culturing, the transfected cells were ready for use. […]
(§1) For GIPR, GLP-1R and GCGR, multi-targeting agonist stimulated cAMP accumulation was measured by a LANCE Ultra cAMP kit (PerkinElmer). After 24 h culture, the transfected cells were seeded into 384-well microtiter plates at a density of 3,000 cells per well in HBSS supplemented with 5 mM HEPES, 0.1% (w/v) BSA or 0.1% (w/v) casein and 0.5 mM 3-isobutyl-1-methylxanthine. The cells were stimulated with different concentrations of peptide agonists for 40 min at RT. Eu-cAMP tracer and ULight^TM-anti-cAMP were then diluted by cAMP detection buffer and added to the plates separately to terminate the reaction. Plates were incubated at RT for 1 h and the fluorescence intensity measured at 620 nm and […] by an EnVision multilabel plate reader (PerkinElmer).

GIPR = biological target: T1, GIPR (Homo sapiens, UniProt P48546); assay: cAMP accumulation assay (LANCE Ultra cAMP kit), GIPR WT, mutant or modified constructs; set-up: acylated tirzepatide to the full-length or modified; Flag; expressed in transfected cells; host or cells: HEK293T; conditions: HEK293T; for Emax: HEK-293T
T1 sequence (P48546 22-466): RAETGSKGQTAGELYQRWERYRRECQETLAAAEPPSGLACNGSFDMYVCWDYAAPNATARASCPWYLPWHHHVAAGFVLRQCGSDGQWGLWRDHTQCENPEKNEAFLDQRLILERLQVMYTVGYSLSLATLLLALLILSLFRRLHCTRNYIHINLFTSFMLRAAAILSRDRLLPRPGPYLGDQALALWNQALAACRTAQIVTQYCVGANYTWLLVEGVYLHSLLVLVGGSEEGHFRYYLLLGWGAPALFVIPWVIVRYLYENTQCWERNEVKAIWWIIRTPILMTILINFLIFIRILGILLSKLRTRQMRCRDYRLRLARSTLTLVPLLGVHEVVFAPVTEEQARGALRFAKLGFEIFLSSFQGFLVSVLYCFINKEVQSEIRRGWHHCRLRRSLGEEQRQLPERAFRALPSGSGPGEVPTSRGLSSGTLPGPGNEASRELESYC
Protocol: Human embryonic kidney 293 cells containing SV40 large T-antigen (HEK293T) were cultured in DMEM (Gibco) supplemented with 10% (v/v) fetal bovine serum (FBS, Gibco), 1 mM sodium pyruvate (Gibco) and 100 units/mL penicillin and 100 μg/mL streptomycin at 37 °C in 5% CO2. Chinese hamster ovary (CHO-K1) cells were cultured in F-12 (Gibco) containing 10% FBS, 100 units/mL penicillin and 100 μg/mL streptomycin at 37 °C in 5% CO2. For cAMP and receptor expression assays, HEK293T cells were seeded into 6-well cell culture plates at a density of 7 × 10^5 cells per well. After overnight incubation, cells were transfected with GIPR, GLP-1R or GCGR construct using Lipofectamine 2000 or Lipofectamine 3000 transfection reagent (Invitrogen). For whole-cell binding assay, CHO-K1 cells were seeded into 96-well fibronectin-treated cell culture plates at a density of 3 × 10^4 cells per well. After overnight incubation, cells were transfected with GIPR, GLP-1R or GCGR construct using Lipofectamine 2000 transfection reagent (Invitrogen). Following 24 h culturing, the transfected cells were ready for use.
A BRIL fusion protein was added at the N-terminal of the ECD with a TEV protease site and 2GSA linker between them. C-terminal 45 amino acids (Q422-C466) of the receptor were truncated. LgBiT was added at the end of helix 8 with a 15-amino acid (15AA) polypeptide linker in between, followed by a TEV protease cleavage site and an OMBP-MBP tag. […] The construct and various mutants of human GIPR were cloned into pcDNA3.1 vector for cAMP accumulation and whole-cell binding assays.
as §1

Chain of GCGR (P47871 26-477): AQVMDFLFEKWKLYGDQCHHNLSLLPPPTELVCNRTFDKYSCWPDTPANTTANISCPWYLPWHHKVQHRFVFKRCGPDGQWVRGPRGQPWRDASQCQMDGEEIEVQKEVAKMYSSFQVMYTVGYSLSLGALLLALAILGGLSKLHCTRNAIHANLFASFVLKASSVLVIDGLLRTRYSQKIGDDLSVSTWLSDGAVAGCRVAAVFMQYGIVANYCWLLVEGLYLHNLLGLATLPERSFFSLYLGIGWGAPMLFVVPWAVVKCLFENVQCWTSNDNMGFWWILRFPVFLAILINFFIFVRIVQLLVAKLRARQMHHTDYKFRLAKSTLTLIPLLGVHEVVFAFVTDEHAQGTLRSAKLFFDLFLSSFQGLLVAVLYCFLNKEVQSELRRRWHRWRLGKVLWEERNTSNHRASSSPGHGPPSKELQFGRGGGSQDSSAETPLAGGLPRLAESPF
Chain of GLP-1R (P43220 24-463): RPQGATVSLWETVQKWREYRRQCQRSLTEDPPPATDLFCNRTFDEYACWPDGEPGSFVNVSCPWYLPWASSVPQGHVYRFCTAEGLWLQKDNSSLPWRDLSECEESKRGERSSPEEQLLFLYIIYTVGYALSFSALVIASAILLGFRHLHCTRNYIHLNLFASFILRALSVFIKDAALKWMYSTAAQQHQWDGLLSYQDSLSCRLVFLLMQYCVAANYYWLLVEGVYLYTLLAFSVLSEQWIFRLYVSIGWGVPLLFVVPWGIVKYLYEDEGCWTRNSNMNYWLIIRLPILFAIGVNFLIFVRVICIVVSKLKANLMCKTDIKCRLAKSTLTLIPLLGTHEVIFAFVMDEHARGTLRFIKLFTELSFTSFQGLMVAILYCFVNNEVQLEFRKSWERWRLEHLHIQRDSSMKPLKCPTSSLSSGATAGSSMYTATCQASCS

## CCCCCCCCCCCCCCCC(=O)N[C@@H](CCC(=O)NCCCC[C@H](NC(=O)[C@H](CC(=O)O)NC(=O)[C@H](CO)NC(=O)[C@@H](NC(=O)[C@H](Cc1ccccc1)NC(=O)[C@@H](NC(=O)CNC(=O)[C@H](CCC(N)=O)NC(=O)C(C)(C)NC(=O)[C@@H](N)Cc1c[nH]cn1)[C@@H](C)O)[C@@H](C)O)C(=O)N[C@@H](CO)C(=O)N[C@@H](CCCCN)C(=O)N[C@@H](Cc1ccc(O)cc1)C(=O)N[C@@H](CC(C)C)C(=O)N[C@@H](CC(=O)O)C(=O)N[C@@H](CCC(=O)O)C(=O)N[C@@H](CCCNC(=N)N)C(=O)N[C@@H](C)C(=O)N[C@@H](C)C(=O)N[C@@H](CCC(N)=O)C(=O)N[C@@H](CC(=O)O)C(=O)N[C@@H](Cc1ccccc1)C(=O)N[C@H](C(=O)N[C@@H](CCC(N)=O)C(=O)N[C@@H](Cc1c[nH]c2ccccc12)C(=O)N[C@@H](CC(C)C)C(=O)N[C@@H](CC(C)C)C(=O)N[C@@H](CC(=O)O)C(=O)NCC(=O)NCC(=O)N1CCC[C@H]1C(=O)N[C@@H](CO)C(=O)N[C@@H](CO)C(=O)NCC(=O)N[C@@H](C)C(=O)N1CCC[C@H]1C(=O)N1CCC[C@H]1C(=O)N1CCC[C@H]1C(=O)N[C@@H](CO)C(N)=O)C(C)C)C(=O)O [Peptide 20]
GLP-1R; 0.1% BSA
  Emax: 73.5 ± 1.86%
GLP-1R; 0.1% casein
  Emax: 81 ± 1.28%
GCGR; GCGR WT, read-out: cAMP pEC50 (converted)
  EC50: 5.62 pM
GCGR; GCGR, n = 4, SEM, read-out: cAMP pEC50 ± S.E.M. (converted)
  EC50: 2.63 pM
GCGR; GCGR WT, 0.1% BSA, read-out: cAMP accumulation Emax
  Emax: 101 ± 1.36%
GCGR; GCGR WT, 0.1% casein, read-out: cAMP accumulation Emax
  Emax: 100.2 ± 0.86%
GCGR; GCGR WT, read-out: cAMP Emax
  Emax: 99.3 ± 1.73%
GCGR; GCGR, n = 4, SEM, read-out: cAMP Emax ± S.E.M.
  Emax: 101 ± 1.68%
GIPR; GIPR WT, read-out: cAMP pEC50 (converted)
  EC50: 13.5 pM
GIPR; GIPR, n = 4, SEM, read-out: cAMP pEC50 ± S.E.M. (converted)
  EC50: 4.47 pM
GIPR; GIPR WT, 0.1% BSA, read-out: cAMP accumulation Emax
  Emax: 99.9 ± 1.18%
GIPR; GIPR WT, 0.1% casein, read-out: cAMP accumulation Emax
  Emax: 100 ± 1.51%
GIPR; GIPR WT, read-out: cAMP Emax
  Emax: 99.2 ± 1.85%
GIPR; GIPR, n = 4, SEM, read-out: cAMP Emax ± S.E.M.
  Emax: 100 ± 1.48%
